Experimental data as given in US11325909B2, “Crystalline 2-amino-2-(hydroxymethyl)propane-1,3-diol salt of 4-(4-(1-isopropyl-7-OXO-1,4,6,7-tetrahydrospiro[indazole-5,4′-piperidine]-1′-carbonyl)-6-methoxypryridin-2-YL)benzoic acid” (Pfizer Inc., priority 2017, dated 2022).
Where a name gives a salt, the structure may show the parent alone.

Key:
[1] = Thermodynamic solubility (24 hours agitation at RT, filtration, nitrogen detector); format: physicochemical; conditions: for Solubility pH 1.2: pH 1.2, 24 hours at RT; for Solubility pH 6.5: pH 6.5, 24 hours at RT; for Solubility pH 7.4: pH 7.4, 24 hours at RT
Procedure: Four hundred fifty microliters (450 μL) of the desired medium was added to the filter and agitated for 24 hours at RT. After 24 hours, the sample was filtered and the filtrates were injected into a nitrogen detector for quantification.
pH 1.2: Weigh out 1.0 g of NaCl and transfer to a beaker. Add about 450 mL HPLC-grade water to dissolve the NaCl. […] Transfer the solution to a 500 mL volumetric flask and bring to 500 mL with HPLC-grade water.
pH 6.5: Titrate about 250 mL of 50 mM NaPO4 dibasic with about 500 mL of 50 mM NaPO4 monobasic to pH 6.5. The ending total volume is the volume at the point the solution has a pH 6.5 is reached when adding 50 mM NaPO4 monobasic to the 50 mM NaPO4 dibasic.
pH 7.4: Titrate about 200 mL of 50 mM NaPO4 dibasic with about 50 mL of 50 mM NaPO4 monbasic to pH 7.4. The ending total volume is the volume at the point the solution has a pH 7.4 is reached when adding 50 mM NaPO4 monobasic to the 50 mM NaPO4 dibasic.

[2] = Thermodynamic stability of crystalline forms versus water activity; format: physicochemical; conditions: ambient temperature; 0.2 corresponds to 20% RH
[3] = Hygroscopicity by dynamic vapor sorption; format: physicochemical; conditions: at 90% RH/25° C.
Procedure: Hygroscopicity was measured using a dynamic vapor sorption instrument manufactured by TA Instruments or Surface Measurement Systems. A sample of each Form was exposed to incremental RH levels until either a weight equilibrium (seen as a plateau) of ≤0.001% weight change in 5 minutes was met, or a maximum time of 120 minutes at each RH level. After the shorter of 0.001% weight equilibrium in 5 minutes or 120 minutes, the sample was then exposed to the next RH level. There was an initial drying period where weight may have been lost with Form 1, no drying was utilized for Form 2. The process starts at 10% RH with RH increased to 20% RH and then a 10% RH increase after each interval (0.001% in 5 minutes equilibrium or 120 min, whichever occurred first). At 90% RH, the RH was reversed back to 10% RH using the same equilibration criteria. The hygroscopicity is measured as a function of the percent weight gain measured at 90% RH.

[4] = Pharmacokinetic studies, oral dose, male (fasted) cynomolgus monkeys; format: in vivo
Procedure: Pharmacokinetic studies were conducted in male (fasted) cynomolgus monkeys (n=2 for each formulation). An oral pill was prepared to compare Form 1 and Form 2. […] The dosage was administered as an oral dose containing 2, 5, or 10 mg/kg, respectively. Serial blood samples were collected at the 0, 0.25, 0.5, 1, 2, 4, 7, and 24-hour time points via the femoral vein by syringe and transferred into K3EDTA vacutainers. Blood samples were then centrifuged, the plasma harvested and stored at −20° C. or −80° C. until analysis.
The appropriate amount of either Form 1 or Form 2 was transferred into a mortar. The corresponding amount of the excipient blend was then geometrically added to the mortar and mixed thoroughly with the respective Form 1 or Form 2 using a pestle. The mixture was transferred to a container, and blended on a Turbula mixer for 5 minutes to provide a blend containing the respective Form 1 or Form 2 mixed with the excipients.
The tablets were compressed to achieve 100 mg tablet weight, with target tablet hardness between 4 and 9 kp at the press speed of 15 tablets per minute.
To prepare a representative batch size of 1 L of 0.5% (w/v) methylcellulose (Methocel® A4M) solution, approximately 0.4 L of deionized water was heated to 80-90° C. after which 5 grams of methylcellulose (Methocel® A4M) was added and mixed thoroughly until the particles were thoroughly wetted. The mixture was then removed from heat. Cold water (0.6 L) was then added, while continuously stirring in the ice bath, until all the methylcellulose particles were dissolved.
The solid powder was triturated (lumps broken) using a pestle. Two mL of 0.5% w/v methylcellulose (Methocel® A4M) was added to the powder drop-wise. The vehicle and free acid were well mixed to form a smooth paste. The remaining of the vehicle was added in small aliquots while mixing until a uniform suspension was obtained. […] Twenty-two microliter of Polysorbate 80 (Tween® 80) was added to the suspension.
The solid powder was triturated (lumps broken) using a pestle. Small amount of 0.5% w/v methylcellulose (Methocel® A4M) was added to the powder to form a smooth paste. The remaining of the vehicle was added in small aliquots while mixing until a uniform suspension was obtained. The suspension was transferred to a container and made up to final volume of 50 mL.

[5] = Hygroscopicity observed during salt evaluation (mainly through visualization); format: physicochemical
Excerpt: Determining whether a solid would form was just one factor in this evaluation. […] See, e.g., C. Saal, A. Becker, Euro.

[6] = Immediate Release Tablet, 2 mg/kg

With `COc1cc(C(=O)N2CCC3(CC2)CC(=O)c2c(cnn2C(C)C)C3)cc(-c2ccc(C(=O)O)cc2)n1` [Form 1, 4-(4-(1-isopropyl-7-oxo-1,4,6,7-tetrahydrospiro[indazole-5,4′-piperidine]-1′-carbonyl)-6-methoxypyridin-2-yl)benzoic acid anhydrous tris salt] the “Solubility pH 1.2” value ([1]; listed as Tris (Form 1)) was 1320.0 μM, the “Solubility pH 6.5” value ([1]; listed as Tris (Form 1)) was 3980.0 μM and the “Solubility pH 7.4” value ([1]; listed as Tris (Form 1)) was 4770.0 μM. For the same compound, the “water activity at which the form is thermodynamically stable” value [2] was less than 0.2, the “hygroscopicity (percent weight gain)” value [3] was “about 1%” and the AUC/Dose [4, 6] was 5750 ng*h/ml/mpk. It also gave an AUC/Dose ([4]; Suspension, 5 mg/kg) of 7240 ng*h/ml/mpk.
In the case of `COc1cc(C(=O)N2CCC3(CC2)CC(=O)c2c(cnn2C(C)C)C3)cc(-c2ccc(C(=O)O)cc2)n1` [Compound 1, 4-(4-(1-isopropyl-7-oxo-1,4,6,7-tetrahydrospiro[indazole-5,4′-piperidine]-1′-carbonyl)-6-methoxypyridin-2-yl)benzoic acid], the “Solubility pH 1.2” value ([1]; listed as Free acid - batch A) is reported as 11.8 (avg, n = 2, μM, the “Solubility pH 1.2” value ([1]; listed as Free acid - batch B) is reported as 13.0 (avg, n = 2, μM and the “Solubility pH 1.2” value ([1]; listed as Free acid - batch C) is reported as less than 0.5 μM. For the same compound, the “Solubility pH 6.5” value ([1]; listed as Free acid - batch A) was 44.7 (avg, n = 2, μM, the “Solubility pH 6.5” value ([1]; listed as Free acid - batch B) was 222.0 (avg, n = 2, μM and the “Solubility pH 6.5” value ([1]; listed as Free acid - batch C) was 19.6 μM. For the same compound, the “Solubility pH 7.4” value ([1]; listed as Free acid - batch A) was 255.0 (avg, n = 2, μM, the “Solubility pH 7.4” value ([1]; listed as Free acid - batch B) was 1700.0 (avg, n = 2, μM and the “Solubility pH 7.4” value ([1]; listed as Free acid - batch C) was 194.0 μM. It also gave an AUC/Dose ([4]; Suspension, 10 mg/kg) of 4120 ng*h/ml/mpk.
For `O=S(=O)(O)O` [sulfuric acid], the “hygroscopicity of the isolated solid (observation)” value (“hygroscopicity … (observation)” below) [5] was “very hygroscopic”.
With `COc1cc(C(=O)N2CCC3(CC2)CC(=O)c2c(cnn2C(C)C)C3)cc(-c2ccc(C(=O)O)cc2)n1` [Form 2] the “water activity at which the form is thermodynamically stable” value [2] was greater than 0.2, the “hygroscopicity (percent weight gain)” value [3] was “about 1%” and the AUC/Dose [4, 6] was 5650 ng*h/ml/mpk.
In the case of sodium, the “hygroscopicity … (observation)” value [5] is reported as “too hygroscopic”.
For `[K+]` [potassium], the “hygroscopicity … (observation)” value [5] was “too hygroscopic”.
With `[Ca]` [Calcium] the “hygroscopicity … (observation)” value [5] was “too hygroscopic”, the “Solubility pH 1.2” value [1] was 13.5 μM and the “Solubility pH 6.5” value [1] was 1500.0 μM. For the same compound, the “Solubility pH 7.4” value [1] was 5050.0 μM.
